{"source": "patent US10201526B2", "about": "“Compositions and methods for inhibiting the growth of neisseria gonorrhoeae” (Research Institute at Nationwide Children's Hospital, priority 2015, dated 2019)", "key": {"[1]": {"details": "preclinical studies (ref. 36); cited from earlier work"}, "[2]": {"assay": "Phase I oncology study of AR-12", "format": "in vivo, human", "excerpt": "AR-12 was originally investigated in a Phase I oncology study (27), an IND (IND #103799) was previously filed with the Food and Drug Administration (FDA), and an Investigational Medicinal Product Dossier (IMPD) was filed with the Medicines and Healthcare Products Regulatory Agency (MHRA Reference: 35725/0001/001-0001 [EudraCT Number: 2009-014285-25]) in the United Kingdom, which enabled the Phase I study entitled: “A Phase I Study of AR-12 (2-Amino-N-[4-[5-(2-phenanthrenyl)-3-(trifluoromethyl)-1H-pyrazol-1-yl]phenyl]-acetamide) in Adult Patients With Advanced or Recurrent Solid Tumors or Lymphoma, for Which No Standard Therapy Is Available”. […] Thirty-five patients were enrolled at nine dose levels. With the original formulation tested, the recommended oncology Phase II dose was 800 mg twice daily.\nThe half-life in humans is long and is estimated to be approximately 60 hours. […] This is a favorable property for the treatment of Ng, which is, with rare exception, a mucosal pathogen. AR-12 is slowly released from the tissue back into the bloodstream and slowly excreted, which explains its long half-life."}, "[3]": {"assay": "Stability at ambient conditions (cGMP material)", "format": "physicochemical", "excerpt": "AR-12 was initially developed by Arno Therapeutics (Arno) in 2008 for an oncology indication. In support of this oncology program, Arno initiated an Investigational New Drug (IND) enabling toxicology program, which included standard Good Laboratory Practice (GLP) tests (e. g. genotoxicity), a battery of safety pharmacology studies, and 28-day general toxicity assessments performed in rats and dogs. Before Arno's involvement, the National Cancer Institute had generated preclinical ADME (i. e., absorption, distribution, metabolism, and excretion) and toxicology data in the mouse model as part of the Rapid Access to Intervention Development (RAID) program. AR-12 synthesis was optimized and scaled-up to approximately 50 kg (purity >99.5%; stability ≥24 months at ambient conditions) under Current Good Manufacturing Practices (cGMP) conditions in anticipation of continued clinical development in the oncology setting."}, "[4]": {"system": "Ng strains 1291 and (MDR) WHO-M", "assay": "Modified gentamicin survival assay, drug added to established Ng infection of PEX cells", "format": "cell-based, Neisseria gonorrhoeae", "protocol": "Modified gentamicin survival assays were performed in which pex cells were challenged with our preferred laboratory Ng strain, 1291, or the MDR Ng strain, WHO-M (beta-lactam-, ciprofloxacin-, and rifampicin-resistant; plus a mtrR mutation that could effect resistance to other compounds (35)). Infections were allowed to proceed for 90 min to allow Ng to adhere to and invade PEX cells. Vehicle control, AR-12, ceftriaxone, or gentamicin was then added to established infections.\nAt the indicated times post-challenge, the infection medium was removed, the PEX cell monolayers were rinsed and lysed, and viable Ng were enumerated by counting CFUs after plating serial dilutions of the PEX cell lysates. The percentage of Ng that survived the test treatment was determined as a function of the infection inoculum. In this aspect, the units are colony forming units—percent survival calculated as: [(#CFU (x dilution factor)) divided by (number of bacteria used as the infection inoculum (˜typically 1×10^7 bacteria per ml))×100]. A significant reduction (at least about 300 fold) in viable Ng was observed following a 3-hour incubation with 10 μM AR-12 (FIG. 2A).\nConcentrations of AR-12 tested are shown on the x-axis. “None” refers to vehicle control."}, "Ng": {"system": "Ng", "assay": "Antimicrobial disk diffusion assays", "parameters": "species or system Neisseria gonorrhoeae", "details": "no human cells", "excerpt": "This effect was specific to infection of human cells in that AR-12 was not effective against the Ng by antimicrobial disk diffusion assays, which prohibit Ng growth on agar plates."}, "[5]": {"system": "Ng invasion of and survival within PEX cells", "assay": "Gentamicin-survival assays: Ng invasion of and survival within PEX cells with estradiol, progesterone, Akt inhibitor", "format": "cell-based, Neisseria gonorrhoeae", "protocol": "Progesterone (Pg) augments gonococcal invasion of and survival within PEX cells. […] Therefore, to more closely mimic the luteal phase of the menses cycle, when Pg concentrations fluctuate between 3 nM and 30 nM, the effect of Pg on Ng invasion of and survival within PEX cells was evaluated using a gentamicin-survival assays with 0.4 nM of estradiol (E2) and variable concentrations of Pg (FIG. 1)\nFurther studies were conducted to determine if Pg augmented the ability of gonococci to survive intracellularly within PEX cells. Following gentamicin treatment (to kill extracellular bacteria), infected cell monolayers were either lysed (releasing the invasive Ng) and serial dilutions were plated, or they were re-incubated in antibiotic free medium for 1 or 3 hours longer before plating the PEX cell lysate and quantitating colony forming units. Akt inhibitor VII was included or omitted from these experiments."}, "[6]": {"details": "by 24 hours post-AR-12 treatment"}}, "data": [{"smiles": "NCC(=O)Nc1ccc(-n2nc(C(F)(F)F)cc2-c2ccc3c(ccc4ccccc43)c2)cc1", "note": "[AR-12, 2-amino-N-(4-(5-(phenanthren-2-yl)-3-(trifluoromethyl)-1H-pyrazol-1-yl)phenyl)acetamide]", "values": [{"measurement": "accumulation in tissues relative to blood level concentrations", "setting": "[1]", "value": "exceeding the blood level concentrations several fold"}, {"measurement": "blood brain barrier penetration", "setting": "[1]", "value": "rapid blood brain barrier penetration"}, {"measurement": "dose limiting toxicities (DLT)", "setting": "[2]; doses appropriate in the oncology setting, human", "value": "fatigue, dizziness, and skin rash"}, {"measurement": "half-life", "setting": "[2]; human, blood, oral dosage form, Phase I study, estimated, read-out: half-life in humans (converted)", "value": "~60", "unit": "h"}, {"measurement": "safety profile", "setting": "[2]; long-term oral exposures up to 33 weeks, phase I study", "value": "acceptable safety profile"}, {"measurement": "recommended oncology Phase II dose", "setting": "[2]; original formulation, human", "value": 800, "unit": "mg twice daily"}, {"measurement": "stability", "setting": "[3]", "value": "≥ 24", "unit": "months"}, {"measurement": "reduction in viable Ng", "setting": "[4]; 10 μM AR-12, 3-hour incubation, Ng-infected PEX cells (FIG. 2A)", "value": "at least 300 fold"}, {"measurement": "viable Ng recovered", "setting": "[4]; 10 μM AR-12, 24 h (FIG. 2C)", "value": "no viable Ng were recovered"}, {"measurement": "reduction of the amount of viable Ng (CFU) compared to an untreated infection", "setting": "[4]; 10 μM AR-12, after about 6 hours (FIG. 2E)", "value": "at least 3 log"}, {"measurement": "reduction of the amount of viable Ng (CFU) compared to an untreated infection", "setting": "[4]; 10 μM AR-12, after about 24 hours (FIG. 2E)", "value": "at least 7 log"}, {"measurement": "reduction in the number of viable Ng", "setting": "[4]; AR-12 treatment 6 h, Ng-infected PEX cells (FIG. 2B)", "value": "at least 600 fold"}, {"measurement": "killing of Ng (bactericidal effect)", "setting": "[4]; [6]", "value": 100, "unit": "%"}, {"measurement": "spontaneous resistance to AR-12", "setting": "[4]; [6]", "value": "no spontaneous resistance"}, {"measurement": "effectiveness against Ng on agar plates", "setting": "Ng", "value": "not effective"}]}, {"smiles": "CC(=O)[C@H]1CC[C@H]2[C@@H]3CCC4=CC(=O)CC[C@]4(C)[C@H]3CC[C@]12C", "note": "[Pg, Progesterone]", "values": [{"measurement": "gonococcal invasion of PEX cells", "setting": "[5]; 0.4 nM estradiol, variable concentrations of Pg (FIG. 1A)", "value": "increased with increasing concentrations of Pg"}, {"measurement": "ability of gonococci to invade, as well as survive within, PEX cells", "setting": "[5]; presence of Pg, 1 or 3 hours post-invasion (FIG. 1B)", "value": "enhanced"}]}]}
